Laboratory results reported in patent EP2812315B1, “PYRROLIC DERIVATIVES, PROCESSES FOR PREPARING THE SAME AND THEIR USES AS A DRUG” (Universite Joseph Fourier, priority 2012, dated 2013).
Values after ≈ are worked out from the molar mass of the structure shown.

Key:
Format in all cases: cell-based
[1] = system: Staphylococcus aureus (MSSA476); test: Other MIC determination, microdilution method (CLSI M07-A9) with modifications; settings: 10^6 CFU/ml, 18h at 37 °C
Method: (§1) The microdilution method recommended by the Clinical and Laboratory Standard Institute [M07-A9, Vol.32, N°2] was used with the following modifications.
(§2) Bacterial inocula were prepared in Mueller Hinton broth (MH2, BioMérieux, Marcy L'Etoile, France). They were dispensed in 96 well microtiter plates (10^6 CFU/ml of final inoculum, 192 µL per well).
(§3) To avoid cross-contaminations in microtiter plates, one row was left blank between each strain tested. Microplates were incubated for 18h at 37 °C in ambient air. Then MICs were read visually and, in case of visual reading difficulties, confirmed using a spectrophotometer at a wavelength of 630 nm (BioTek® EL808 Absorbance Microplate Reader). MICs corresponded to the minimum pyrrolic compound concentrations that allowed complete visual growth inhibition of bacteria. Drug-free cultures served as growth controls.
(§4) We used four Staphylococcus aureus strains. Two reference strains were provided by the French reference center for Staphylococcus spp. (Lyon, France), including one methicillin-susceptible (MSSA 476) and one methicillin-resistant (MRSA 252) S. aureus strains. The two remaining S. aureus strains were purchased from the CRBIP (Centre de Ressources Biologiques de l'Institut Pasteur): a vancomycin-intermediate strain (ATCC 106414) and a S. aureus strain (SA-1199B) resistant to fluoroquinolones due to overexpression of the NorA multidrug efflux pump. Coagulase-negative Staphylococcus strains included three reference strains purchased from CRBIP: a methicillin-susceptible S. epidermidis strain (ATCC 12228), a methicillin-resistant S. epidermidis strain (ATCC 49461), and a methicillin-susceptible S. sciuri strain (ATCC 29061). We also used 37 clinical strains belonging to the following coagulase-negative Staphylococcus species: S. arlettae (two strains), S. capitis (nine strains), S. epidermidis (one strain), S. haemolyticus (six strains), S. hominis (eight strains), S. lugdunensis (one strain), S. massiliensis (one strain), S. pettenkoferi (two strains), S. saprophyticus (two strains), S. simulans (one strain), and S. warneri (four strains) . Identification of the clinical strains was first obtained using VITEK® 2 System (Biomérieux) and confirmed by amplification and sequencing of the tuf gene (Reference: Bergeron, M., O. Dauwalder, M. Gouy, A.-M. Freydiere, M. Bes, H. Meugnier, Y. Benito, J. Etienne, G. Lina, F. Vandenesch, and S. Boisset. Species identification of staphylococci by amplification and sequencing of the tuf gene compared to the gap gene and by matrix-assisted laser desorption ionization time-of-flight mass spectrometry, Eur. J. Clin. Microbial. Infect. Dis. 2011, 30, 343-354).
(§5) The activity of pyrrolic compounds 3c, 3e-3j and 3n was first tested against 12 Staphylococcus sp. strains, including 7 reference strains and five clinical strains. The MICs of these compounds against Staphylococcus aureus ATCC 106414 (VISA) and Staphylococcus epidermidis ATCC 12228 are in accordance with those described in Tables I and II.

[2] = system: Staphylococcus sciuri (ATCC 29061); test: as above; settings: Mammaliicoccus sciuri, ATCC29061, 10^6 CFU/ml, 18h at 37 °C
Method: as §1, §2, §3, §4, §5

[3] = system: Staphylococcus pettenkoferi (CHUG-Spet1); test: as above; settings: 10^6 CFU/ml, 18h at 37 °C
Method: as §1, §2, §3, §4, §5

[4] = system: Staphylococcus epidermidis (ATCC 49461); test: as above; settings: ATCC49461, 10^6 CFU/ml, 18h at 37 °C
Method: as §1, §2, §3, §4, §5

[5] = system: Staphylococcus haemolyticus (CHUG-Shae1); test: as above; settings: 10^6 CFU/ml, 18h at 37 °C
Method: as §1, §2, §3, §4, §5

[6] = system: Staphylococcus aureus (ATCC 106414, VISA); test: as above; settings: 10^6 CFU/ml, 18h at 37 °C
Method: as §1, §2, §3, §4, §5

[7] = system: Staphylococcus warneri (CHUG-Swar1); test: as above; settings: 10^6 CFU/ml, 18h at 37 °C
Method: as §1, §2, §3, §4, §5

[8] = system: Staphylococcus hominis(CHUG-Shom1); test: as above; settings: 10^6 CFU/ml, 18h at 37 °C
Method: as §1, §2, §3, §4, §5

[9] = system: Staphylococcus capitis (CHUG-Scapi1); test: as above; settings: 10^6 CFU/ml, 18h at 37 °C
Method: as §1, §2, §3, §4, §5

[10] = system: Staphylococcus aureus (MRSA 252); test: as above; settings: 10^6 CFU/ml, 18h at 37 °C
Method: as §1, §2, §3, §4, §5

[11] = system: Staphylococcus epidermidis (ATCC 12228); test: as above; settings: ATCC12228, 10^6 CFU/ml, 18h at 37 °C
Method: as §1, §2, §3, §4, §5

[12] = system: Staphylococcus aureus MSSA 476 CNR HT 2006 0437; test: Determination of the minimum bactericidal concentration (MBC), macro-method; settings: 18 hours incubation, initial bacterial load 7,70E+05
Method: (§6) The MBC against two different strains of Staphylococcus aureus, one susceptible to methicillin (MSSA 476 CNR HT 2006 0437) and one resistant to methicillin (MRSA 252 CNR HT 2006 0436) obtained from Centre National de Reference des Staphylocoques (Lyon, France) were determined using a macro-method. Sterile tubes were filled with a primary bacterial inoculum prepared in Mueller Hinton broth as above (10^6 CFU/ml of final inoculum) and pyrrolic compounds were added at twofold serial concentrations (0.5-128 mg/L of final concentrations for 3h and 3i and 0.0625-128mg/L of final concentration for 3n). After 18 hours incubation of cultures, ten-fold serial dilutions of the cultures with no visible bacterial growth and of the first tube showing visible bacterial growth were prepared. Then 100µl of each dilution were inoculated to Mueller Hinton agar media for 24-48 hours. CFU counts were then determined and the MBC corresponded to the minimal pyrrolic compound concentration for which 99.9% of more bacterial cells were killed after 18 hours of incubation.
(§7) However, this reduction was only 1-2 log CFU/ml, and thus MBC could not be determined (tables VI and VII). Table VI: MBC against Staphylococcus aureus MRSA 252 CNR HT 2006 0436

[13] = system: Staphylococcus aureus MRSA 252 CNR HT 2006 0436; test: as above; settings: 18 hours incubation, initial bacterial load 9500000
Method: as §6, §7

Q: With `CC(=O)c1c(C)[nH]c(C(c2[nH]c(C)c(C(C)=O)c2C)c2csc3ccc(Br)cc23)c1C` [3n] as the compound, how does the MIC [1] read?
A: Its MIC is 0.125 µg/mL (≈ 0.251 µM).

Q: What about the MIC [2] of the same compound?
A: Its MIC is greater than 32 µg/mL.

Q: And the MIC [3]?
A: Its MIC is greater than 32 µg/mL.

Q: And the MIC [4]?
A: The MIC was greater than 32 µg/mL.

Q: What about the MIC [5] of the same compound?
A: Its MIC is 1 µg/mL (≈ 2.01 µM).

Q: And the MIC [6]?
A: The MIC was 0.125 µg/mL (≈ 0.251 µM).

Q: And the MIC [7]?
A: Its MIC is 0.25 µg/mL (≈ 0.503 µM).

Q: And the MIC [8]?
A: Its MIC is greater than 32 µg/mL.

Q: And the MIC [9]?
A: Its MIC is 0.125 µg/mL (≈ 0.251 µM).

Q: And the MIC [10]?
A: Its MIC is 0.125 µg/mL (≈ 0.251 µM).

Q: And the MIC [11]?
A: Its MIC is greater than 32 µg/mL.

Q: And the “CFU counts (bacterial load)” value ([12]; concentration 0,5 mg/L)?
A: Its value is 2,78E+05 CFU/ml.

Q: What about the “CFU counts (bacterial load)” value ([12]; concentration 0,25 mg/L) of the same compound?
A: Its value is 2,10E+06 CFU/ml.

Q: What about the “CFU counts (bacterial load)” value ([12]; concentration 1 mg/L) of the same compound?
A: The value was 1,76E+05 CFU/ml.

Q: And the “CFU counts (bacterial load)” value ([12]; concentration 2 mg/L)?
A: Its value is 2,70E+05 CFU/ml.

Q: What about the “CFU counts (bacterial load)” value ([12]; concentration 4 mg/L) of the same compound?
A: The value was 2,71E+05 CFU/ml.

Q: And the “CFU counts (bacterial load)” value ([12]; concentration 16 mg/L)?
A: The value was 4,41E+05 CFU/ml.

Q: And the “CFU counts (bacterial load)” value ([12]; concentration 32 mg/L)?
A: Its value is 4,47E+05 CFU/ml.

Q: What about the “CFU counts (bacterial load)” value ([12]; concentration 64 mg/L) of the same compound?
A: Its value is 4,50E+05 CFU/ml.

Q: What about the “CFU counts (bacterial load)” value ([12]; concentration 0,125 mg/L) of the same compound?
A: The value was 8,00E+07 CFU/ml.

Q: And the “CFU counts (bacterial load)” value ([12]; concentration 128 mg/L)?
A: Its value is 3,50E+05 CFU/ml.

Q: What about the “CFU counts (bacterial load)” value ([12]; concentration 0,0625 mg/L) of the same compound?
A: The value was 2,15E+08 CFU/ml.

Q: What about the “CFU counts (bacterial load)” value ([13]; concentration 0,5 mg/L) of the same compound?
A: Its value is 2,90E+05 CFU/ml.

Q: And the “CFU counts (bacterial load)” value ([13]; concentration 0,25 mg/L)?
A: The value was 2,80E+05 CFU/ml.

Q: And the “CFU counts (bacterial load)” value ([13]; concentration 1 mg/L)?
A: The value was 3,00E+05 CFU/ml.

Q: What about the “CFU counts (bacterial load)” value ([13]; concentration 2 mg/L) of the same compound?
A: The value was 4,20E+05 CFU/ml.

Q: What about the “CFU counts (bacterial load)” value ([13]; concentration 4 mg/L) of the same compound?
A: The value was 4,20E+05 CFU/ml.

Q: And the “CFU counts (bacterial load)” value ([13]; concentration 8 mg/L)?
A: Its value is 3,40E+05 CFU/ml.

Q: And the “CFU counts (bacterial load)” value ([13]; concentration 16 mg/L)?
A: Its value is 3,80E+05 CFU/ml.

Q: And the “CFU counts (bacterial load)” value ([13]; concentration 0,125 mg/L)?
A: The value was 1,00E+06 CFU/ml.

Q: What about the “CFU counts (bacterial load)” value ([13]; concentration 0,0625 mg/L) of the same compound?
A: Its value is 2,90E+07 CFU/ml.
